Laboratory results as given in ChEMBL document CHEMBL3616440, “Non-basic azolotriazinone MCHR1 antagonists for the treatment of obesity: An empirical brain-exposures-driven candidate selection for in vivo efficacy studies” (Bioorg Med Chem Lett, 2015).

Assays:
[1] = biological target: Melanin-concentrating hormone receptor 1 (Rattus norvegicus, UniProt P97639); experiment: Displacement of [125I][Phe13,Tyr19]-MCH from rat MCHR1 by scintillation counting analysis
[2] = biological target: T1, Voltage-gated inwardly rectifying potassium channel KCNH2 (Homo sapiens, UniProt Q12809); experiment: Inhibition of human ERG by flux assay
[3] = biological target: T2, Melanin-concentrating hormone receptor 1 (Homo sapiens, UniProt Q99705); experiment: Displacement of [125I][Phe13,Tyr19]-MCH from human MCHR1 expressed in HEK293 cells by scintillation counting analysis; type: cell-based
Rattus norvegicus = experiment: Drug level in oral-dosed Sprague-Dawley rat treated with 1-(4-(6-(4-chlorophenyl)-4-oxothieno[3,2-d]pyrimidin-3(4H)-yl)-2-methoxyphenoxy)-2-methylpropan-2-yl 2-aminoacetate; type: ADME, organism-based; settings: in vivo
[4] = biological target: T1, Voltage-gated inwardly rectifying potassium channel KCNH2; experiment: Inhibition of human ERG expressed in CHO cells assessed as channel current by Q-patch electrophysiological assay; type: cell-based
hERG (KCNH2) = hERG (KCNH2) (Homo sapiens, UniProt Q12809); experiment: Inhibition of human ERG at 1 uM by flux assay
Liver = experiment: Drug level in oral-dosed Sprague-Dawley rat liver treated with (2S)-1-(4-(6-(4-chlorophenyl)-4-oxopyrrolo[1,2-f][1,2,4]triazin-3(4H)-yl)-2-methoxyphenoxy)propan-2-yl 2-amino-3-methylbutanoate; type: ADME, tissue-based; settings: in vivo
[5] = biological target: T2, Melanin-concentrating hormone receptor 1; experiment: Antagonist activity at human MCHR1 expressed in HEK293 cells assessed as inhibition of MCH-induced Ca2+ influx for 120 mins by FLIPR assay; type: functional, cell-based
Nucleic Acid [6] = experiment: Ratio of drug level in Sprague-Dawley rat brain to plasma assessed as 6-(4-chlorophenyl)-3-(4-((3S,4R)-3,4-dihydroxypyrrolidin-1-yl)-3-methoxyphenyl)pyrrolo[1,2-f][1,2,4]triazin-4(3H)-one level at 10 mg/kg, po qd; type: ADME, organism-based
Brain [7] = experiment: Drug concentration in Sprague-Dawley rat brain assessed as 6-(4-chlorophenyl)-3-(4-((3S,4R)-3,4-dihydroxypyrrolidin-1-yl)-3-methoxyphenyl)pyrrolo[1,2-f][1,2,4]triazin-4(3H)-one level at 10 mg/kg, po qd at 8 hrs; type: ADME, organism-based; settings: in vivo, read-out: Drug uptake
Plasma [8] = experiment: Plasma concentration in Sprague-Dawley rat assessed as 6-(4-chlorophenyl)-3-(4-((3S,4R)-3,4-dihydroxypyrrolidin-1-yl)-3-methoxyphenyl)pyrrolo[1,2-f][1,2,4]triazin-4(3H)-one level at 10 mg/kg, po qd at 8 hrs; type: ADME, organism-based; settings: in vivo
Nucleic Acid [9] = experiment: Ratio of drug level in Sprague-Dawley rat brain to plasma assessed as (S)-6-(4-chlorophenyl)-3-(4-(3-(ethylsulfonyl)-2-hydroxypropoxy)-3-methoxyphenyl)pyrrolo[1,2-f][1,2,4]triazin-4(3H)-one level at 10 mg/kg, po qd; type: ADME, organism-based
Brain [10] = experiment: Drug concentration in Sprague-Dawley rat brain assessed as (S)-6-(4-chlorophenyl)-3-(4-(3-(ethylsulfonyl)-2-hydroxypropoxy)-3-methoxyphenyl)pyrrolo[1,2-f][1,2,4]triazin-4(3H)-one level at 10 mg/kg, po qd at 8 hrs; type: ADME, organism-based; settings: in vivo, read-out: Drug uptake
Plasma [11] = experiment: Plasma concentration in Sprague-Dawley rat assessed as (S)-6-(4-chlorophenyl)-3-(4-(3-(ethylsulfonyl)-2-hydroxypropoxy)-3-methoxyphenyl)pyrrolo[1,2-f][1,2,4]triazin-4(3H)-one level at 10 mg/kg, po qd at 8 hrs; type: ADME, organism-based; settings: in vivo
Plasma [12] = experiment: Plasma concentration in Sprague-Dawley rat assessed as (R)-6-(4-chlorophenyl)-3-(4-(3-hydroxypyrrolidin-1-yl)-3-methoxyphenyl)pyrrolo[1,2-f][1,2,4]triazin-4(3H)-one level at 10 mg/kg, po qd at 8 hrs; type: ADME, organism-based; settings: in vivo
Nucleic Acid [13] = experiment: Ratio of drug level in Sprague-Dawley rat brain to plasma assessed as (R)-6-(4-chlorophenyl)-3-(4-(3-hydroxypyrrolidin-1-yl)-3-methoxyphenyl)pyrrolo[1,2-f][1,2,4]triazin-4(3H)-one level at 10 mg/kg, po qd; type: ADME, organism-based
Brain [14] = experiment: Drug concentration in Sprague-Dawley rat brain assessed as (R)-6-(4-chlorophenyl)-3-(4-(3-hydroxypyrrolidin-1-yl)-3-methoxyphenyl)pyrrolo[1,2-f][1,2,4]triazin-4(3H)-one level at 10 mg/kg, po qd at 8 hrs; type: ADME, organism-based; settings: in vivo, read-out: Drug uptake
Plasma [15] = experiment: Plasma concentration in Sprague-Dawley rat assessed as 6-(5-chloropyridin-2-yl)-3-(4-(2-cyclopropyl-2-hydroxyethoxy)-3-methoxyphenyl)pyrrolo[1,2-f][1,2,4]triazin-4(3H)-one level at 10 mg/kg, po qd at 8 hrs; type: ADME, organism-based; settings: in vivo
Nucleic Acid [16] = experiment: Ratio of drug level in Sprague-Dawley rat brain to plasma assessed as 6-(5-chloropyridin-2-yl)-3-(4-(2-cyclopropyl-2-hydroxyethoxy)-3-methoxyphenyl)pyrrolo[1,2-f][1,2,4]triazin-4(3H)-one level at 10 mg/kg, po qd; type: ADME, organism-based
Brain [17] = experiment: Drug concentration in Sprague-Dawley rat brain assessed as 6-(5-chloropyridin-2-yl)-3-(4-(2-cyclopropyl-2-hydroxyethoxy)-3-methoxyphenyl)pyrrolo[1,2-f][1,2,4]triazin-4(3H)-one level at 10 mg/kg, po qd at 8 hrs; type: ADME, organism-based; settings: in vivo, read-out: Drug uptake
Brain [18] = experiment: Drug concentration in Sprague-Dawley rat brain assessed as 6-(4-chlorophenyl)-3-(4-((3,3-difluoro-1-hydroxycyclobutyl)methoxy)-3-methoxyphenyl)pyrrolo[1,2-f][1,2,4]triazin-4(3H)-one level at 10 mg/kg, po qd at 8 hrs; type: ADME, organism-based; settings: in vivo, read-out: Drug uptake
Nucleic Acid [19] = experiment: Ratio of drug level in Sprague-Dawley rat brain to plasma assessed as 6-(4-chlorophenyl)-3-(4-((3,3-difluoro-1-hydroxycyclobutyl)methoxy)-3-methoxyphenyl)pyrrolo[1,2-f][1,2,4]triazin-4(3H)-one level at 10 mg/kg, po qd; type: ADME, organism-based
Plasma [20] = experiment: Plasma concentration in Sprague-Dawley rat assessed as 6-(4-chlorophenyl)-3-(4-((3,3-difluoro-1-hydroxycyclobutyl)methoxy)-3-methoxyphenyl)pyrrolo[1,2-f][1,2,4]triazin-4(3H)-one level at 10 mg/kg, po qd at 8 hrs; type: ADME, organism-based; settings: in vivo

T2 sequence (Q99705 whole entry): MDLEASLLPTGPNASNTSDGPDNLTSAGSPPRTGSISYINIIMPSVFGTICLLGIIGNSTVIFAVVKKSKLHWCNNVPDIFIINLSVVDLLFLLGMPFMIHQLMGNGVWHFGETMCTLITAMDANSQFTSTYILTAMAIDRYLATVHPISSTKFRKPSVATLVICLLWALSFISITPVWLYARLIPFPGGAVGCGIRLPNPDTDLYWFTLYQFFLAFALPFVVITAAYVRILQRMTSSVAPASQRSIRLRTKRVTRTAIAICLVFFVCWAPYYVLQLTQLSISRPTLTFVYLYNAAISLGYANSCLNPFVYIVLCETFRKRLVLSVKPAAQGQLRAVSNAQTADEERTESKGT
T1 sequence (Q12809 whole entry): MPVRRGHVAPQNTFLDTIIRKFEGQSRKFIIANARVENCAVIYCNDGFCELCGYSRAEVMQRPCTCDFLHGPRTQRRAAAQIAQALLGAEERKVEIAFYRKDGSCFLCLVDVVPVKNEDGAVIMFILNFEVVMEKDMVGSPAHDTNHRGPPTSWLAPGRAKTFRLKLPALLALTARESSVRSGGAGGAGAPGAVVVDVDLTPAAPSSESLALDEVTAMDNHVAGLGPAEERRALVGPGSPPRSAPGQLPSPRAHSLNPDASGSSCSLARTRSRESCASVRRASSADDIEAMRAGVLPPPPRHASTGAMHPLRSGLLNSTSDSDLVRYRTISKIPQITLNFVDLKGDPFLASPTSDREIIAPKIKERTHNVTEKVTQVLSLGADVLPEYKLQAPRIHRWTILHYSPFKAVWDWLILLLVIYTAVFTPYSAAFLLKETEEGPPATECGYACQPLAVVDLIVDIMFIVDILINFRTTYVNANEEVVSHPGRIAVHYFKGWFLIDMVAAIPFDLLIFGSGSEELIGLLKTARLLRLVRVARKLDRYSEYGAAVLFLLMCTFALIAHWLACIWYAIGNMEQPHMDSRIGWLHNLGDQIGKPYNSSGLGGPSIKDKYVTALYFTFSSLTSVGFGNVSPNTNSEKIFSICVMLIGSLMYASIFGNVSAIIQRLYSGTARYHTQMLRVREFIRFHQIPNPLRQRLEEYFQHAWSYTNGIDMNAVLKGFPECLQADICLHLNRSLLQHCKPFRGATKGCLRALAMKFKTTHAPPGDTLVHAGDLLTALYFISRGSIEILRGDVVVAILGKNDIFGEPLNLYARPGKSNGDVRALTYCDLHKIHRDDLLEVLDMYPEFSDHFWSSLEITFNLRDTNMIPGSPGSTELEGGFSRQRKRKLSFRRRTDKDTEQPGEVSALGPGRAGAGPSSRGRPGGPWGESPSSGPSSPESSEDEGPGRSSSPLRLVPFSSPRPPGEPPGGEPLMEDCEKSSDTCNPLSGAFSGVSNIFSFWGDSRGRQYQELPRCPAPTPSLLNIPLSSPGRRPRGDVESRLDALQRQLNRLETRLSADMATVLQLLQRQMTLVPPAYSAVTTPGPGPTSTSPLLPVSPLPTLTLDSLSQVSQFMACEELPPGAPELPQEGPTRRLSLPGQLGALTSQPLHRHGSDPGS
Sequence of Melanin-concentrating hormone receptor 1 (Rattus norvegicus, UniProt P97639) (P97639 whole entry): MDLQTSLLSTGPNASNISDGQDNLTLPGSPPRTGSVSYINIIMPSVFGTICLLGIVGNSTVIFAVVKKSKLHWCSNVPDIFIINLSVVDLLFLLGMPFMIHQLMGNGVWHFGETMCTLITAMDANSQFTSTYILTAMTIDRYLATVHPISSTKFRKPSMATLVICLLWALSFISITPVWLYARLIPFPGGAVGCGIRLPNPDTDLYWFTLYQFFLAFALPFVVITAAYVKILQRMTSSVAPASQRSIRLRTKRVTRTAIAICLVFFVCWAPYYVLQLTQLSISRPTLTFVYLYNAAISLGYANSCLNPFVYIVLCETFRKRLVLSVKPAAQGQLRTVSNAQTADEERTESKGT
Sequence of hERG (KCNH2) (Q12809 whole entry): as the sequence (Q12809 whole entry) above

Row | Structure (SMILES) | Ki [1] | Ki [3] | further results
1 | O=c1c2cc(-c3ccc(Cl)cc3)cn2ncn1-c1ccc(N2CCC(N3CC(O)C3)C2)nc1 (stereo unspecified) | 1.4 nM | 0.8 nM | IC50 [2]: 2000 nM
2 | COc1cc(-n2cnn3cc(-c4ccc(Cl)cc4)cc3c2=O)ccc1OCC(C)O (stereo unspecified) | 1.4 nM | – | –
3 | CCS(=O)(=O)C[C@@H](O)COc1ccc(-n2cnn3cc(-c4ncc(Cl)cn4)cc3c2=O)cc1OC | 23 nM | 28 nM | –
4 | COc1ccc(-n2cnn3nc(-c4ccc(Cl)cc4)cc3c2=O)cc1OC | 106 nM | 86 nM | –
5 | COc1cc(-n2cnn3cc(-c4ccc(Cl)cc4)nc3c2=O)ccc1OCCN1CCCC1 | 2.6 nM | 4.4 nM | –
6 | COc1cc(-n2cnc3cc(-c4ccc(Cl)cc4)sc3c2=O)ccc1OCC(C)(O)C(=O)O (stereo unspecified) | – | – | Drug metabolism (Rattus norvegicus): metabolite_detected
7 | O=c1c2cc(-c3ccc(Cl)cc3)cn2ncn1-c1ccc(N2CCC(O)CC2)nc1 | 18 nM | 12 nM | IC50 [4]: > 10000 nM; IC50 [2]: > 80000 nM
8 | O=c1c2cc(-c3ccc(Cl)cc3)cn2ncn1-c1ccc(N2CC[C@@H](O)C2)nc1 | 5.5 nM | 5.3 nM | inhibition at 1 µM (hERG (KCNH2)): 26%
9 | COc1cc(-n2cnn3cc(-c4ccc(Cl)cn4)cc3c2=O)ccc1OCC1(O)CC(F)(F)C1 | 6.5 nM | 6.5 nM | –
10 | CCS(=O)(=O)C[C@@H](O)COc1ccc(-n2cnn3cc(-c4ccc(Cl)cc4)cc3c2=O)cc1OC | 1.5 nM | 2.4 nM | –
11 | COc1cc(-n2cnn3cc(-c4ccc(Cl)cc4)nc3c2=O)ccc1OCC(O)C1CC1 (stereo unspecified) | 18 nM | 26 nM | –
12 | COc1cc(-n2cnn3cc(-c4ccc(Cl)cc4)cc3c2=O)ccc1OCC(O)CO (stereo unspecified) | – | – | Drug metabolism (Liver): metabolite_detected
13 | COc1cc(-n2cnn3nc(-c4ccc(Cl)cc4)cc3c2=O)ccc1OCCN1CCCC1 | 0.5 nM | 0.7 nM | –
14 | COc1cc(-n2cnn3cc(-c4ccc(Cl)cc4)cc3c2=O)ccc1N1C[C@@H](O)[C@@H](O)C1 | 2.3 nM | 3.1 nM | IC50 [5]: 5000 nM
15 | COc1cc(-n2cnn3nc(-c4ccc(Cl)cc4)cc3c2=O)ccc1OCC(O)C1CC1 (stereo unspecified) | 13 nM | 13 nM | –
16 | COc1cc(-n2cnn3cc(-c4ccc(Cl)cc4)cc3c2=O)ccc1OCC(C)(C)O | 1.8 nM | 2.3 nM | IC50 [5]: 44 nM
17 | COc1cc(-n2cnn3cc(-c4ncc(Cl)cn4)cc3c2=O)ccc1OCC1(O)CC(F)(F)C1 | 7.9 nM | 9 nM | –
18 | CNC1CCN(c2ccc(-n3cnn4cc(-c5ccc(Cl)cc5)cc4c3=O)cn2)C1 (stereo unspecified) | 0.3 nM | 0.4 nM | –
19 | COc1cc(-n2cnc3cc(-c4ccc(Cl)cc4)sc3c2=O)ccc1OCC(C)(O)CO (stereo unspecified) | – | – | Drug metabolism (Rattus norvegicus): metabolite_detected
20 | COc1cc(-n2cnn3cc(-c4ccc(Cl)cc4)cc3c2=O)ccc1OCC1(O)CC(F)(F)C1 | 3.8 nM | 3.4 nM | –

Row | Structure (SMILES) | Ki [1] | Ki [3] | further results
21 | COc1cc(-n2cnn3cc(-c4ccc(Cl)cc4)cc3c2=O)ccc1OCC(O)C(=O)O (stereo unspecified) | – | – | Drug metabolism (Liver): metabolite_detected
22 | O=c1c2cc(-c3ccc(Cl)cn3)cn2ncn1-c1ccc(N2CC[C@@H](O)C2)nc1 | 54 nM | 124 nM | –
23 | COc1ccc(-n2cnn3cc(-c4ccc(Cl)cc4)cc3c2=O)cc1OC | 8 nM | 21 nM | –
24 | COc1cc(-n2cnn3cc(-c4ccc(Cl)cc4)cc3c2=O)ccc1OCCN1CCCC1 | 0.4 nM | 0.5 nM | IC50 [2]: 5500 nM
25 | COc1cc(-n2cnn3cc(-c4ccc(Cl)cn4)cc3c2=O)ccc1OCC(O)C1CC1 (stereo unspecified) | 12 nM | 13 nM | –
26 | COc1cc(-n2cnn3cc(-c4ncc(Cl)cn4)cc3c2=O)ccc1OCC(C)(C)O | 15 nM | 13 nM | –
27 | COc1cc(-n2cnn3cc(-c4ncc(Cl)cn4)cc3c2=O)ccc1OCC(O)C1CC1 (stereo unspecified) | 15 nM | 17 nM | –
28 | COc1cc(-n2cnn3cc(-c4ccc(Cl)cn4)cc3c2=O)ccc1OC[C@H](O)C1CC1 | 12 nM | 6.5 nM | –
29 | COc1cc(-n2cnn3cc(-c4ccc(Cl)cc4)cc3c2=O)ccc1N1C[C@H](OC(=O)[C@@H](N)C(C)C)[C@H](OC(=O)[C@@H](N)C(C)C)C1 | – | – | BPR (Nucleic Acid [6]): 0.77; concentration (Brain [7]): 210 nM; concentration (Plasma [8]): 272 nM
30 | COc1ccc(-n2cnn3cc(-c4ccc(Cl)cc4)nc3c2=O)cc1OC | 87 nM | 76 nM | –
31 | COc1cc(-n2cnn3cc(-c4ccc(Cl)cn4)cc3c2=O)ccc1N1CC[C@@H](O)C1 | 9.6 nM | 9.1 nM | –
32 | CCS(=O)(=O)C[C@H](COc1ccc(-n2cnn3cc(-c4ccc(Cl)cc4)cc3c2=O)cc1OC)OC(=O)CN | – | – | BPR (Nucleic Acid [9]): 0.1; concentration (Brain [10]): 175 nM; concentration (Plasma [11]): 1830 nM
33 | COc1cc(-n2cnn3cc(-c4ccc(Cl)cc4)cc3c2=O)ccc1N1CC[C@@H](OC(=O)[C@@H](N)C(C)C)C1 | – | – | concentration (Plasma [12]): 339 nM; BPR (Nucleic Acid [13]): 2.9; concentration (Brain [14]): 966 nM
34 | COc1cc(-n2cnn3cc(-c4ccc(Cl)cn4)cc3c2=O)ccc1OCC(OC(=O)[C@@H](N)C(C)C)C1CC1 (stereo partly specified) | – | – | concentration (Plasma [15]): 10200 nM; BPR (Nucleic Acid [16]): 0.2; concentration (Brain [17]): 2040 nM
35 | O=c1c2cc(-c3ccc(Cl)cc3)cn2ncn1-c1ccc(N2CC(O)C2)nc1 | 14 nM | 15 nM | IC50 [2]: 3300 nM
36 | CCS(=O)(=O)C[C@@H](O)COc1ccc(-n2cnn3cc(-c4ccc(Cl)cn4)cc3c2=O)cc1OC | 8.7 nM | 15 nM | –
37 | COc1cc(-n2cnn3cc(-c4ccc(Cl)cc4)cc3c2=O)ccc1OCC(O)C1CC1 (stereo unspecified) | – | 3.5 nM | IC50 [5]: 300 nM
38 | COc1cc(-n2cnn3cc(-c4ccc(Cl)cc4)cc3c2=O)ccc1OCC1(OC(=O)CN)CC(F)(F)C1 | – | – | concentration (Brain [18]): 2380 nM; BPR (Nucleic Acid [19]): 0.6; concentration (Plasma [20]): 477 nM
39 | COc1cc(-n2cnn3cc(-c4ccc(Cl)cc4)cc3c2=O)ccc1N1CC[C@@H](O)C1 | 4.7 nM | 4.8 nM | –
